From patent US20140349943A1, “TOPICAL FORMULATIONS OF CHEMERIN C15 PEPTIDES FOR THE TREATMENT OF DERMATOLOGICAL CONDITIONS” (priority 2011, published 2014)
Values belong to the compound of their own block, whether it stands above or below them. Peptide text beside a SMILES is read from it.

Key:
mChemR23 = molecular target: T1, mChemR23 (Mus musculus, UniProt P97468); assay: PathHunter β-Arrestin assay, mouse ChemR23; assay type: cell-based
T1 construct: host or cells: CHO (stated generally for the PathHunter assay)
T1 sequence (P97468 1-371): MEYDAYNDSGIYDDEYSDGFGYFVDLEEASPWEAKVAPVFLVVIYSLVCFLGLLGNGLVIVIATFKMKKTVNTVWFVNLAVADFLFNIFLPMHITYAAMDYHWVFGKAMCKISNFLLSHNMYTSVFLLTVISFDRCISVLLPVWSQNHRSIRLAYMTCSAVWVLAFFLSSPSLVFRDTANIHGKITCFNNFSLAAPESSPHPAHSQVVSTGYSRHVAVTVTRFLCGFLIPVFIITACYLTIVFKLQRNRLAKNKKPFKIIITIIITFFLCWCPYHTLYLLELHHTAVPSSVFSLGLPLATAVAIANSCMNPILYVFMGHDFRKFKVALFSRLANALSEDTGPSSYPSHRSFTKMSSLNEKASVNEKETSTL
Experimental: (§1) The DiscoveRx PathHunter™ eXpress GPCR activity assay was employed to test agonist and antagonist activities of the chemerin peptides against the GPCRs ChemR23 and GPR1. Two assay formats were tested, the PathHunter β-Arrestin assay and the Hit Hunter cAMP Hunter assay.
(§2) The PathHunter β-Arrestin assay monitors the activation of a GPCR in a homogenous, non-imaging assay format using a technology developed by DiscoveRx called complementation, which utilizes an enzyme fragment complementation (EFC) assay with β-galactosidase (β-Gal) as the functional reporter. The enzyme is split into two complementary portions expressed as fusion proteins in the cell. The Enzyme Acceptor (EA) is fused to β-Arrestin and the ProLink donor peptide is fused to the GPCR of interest. Upon GPCR stimulation, β-Arrestin is recruited to the receptor for desensitization, bringing the two fragments of β-Gal together and allowing complementation to occur.
(§3) The assay involves CHO cell lines that express 1) a GPCR of interest (e.g. ChemR23 or GPR1) that has a fragment of the βgal enzyme fused to the C-terminus of the receptor and 2) a β-arrestin fused to the main β-gal enzyme. When the agonist binds to the receptor, β-arrestin is recruited to the receptor and the β-gal enzyme is complemented by the fragment from the GPCR thus forming a functional β-gal enzyme. A substrate is then added and luminescence is generated to detect β-arrestin recruitment.
(§4) The protocol used was a standard protocol employed by DiscoveRx PathHunter™ profiling service. […] Once it was established that the cells were healthy and growing normally, cells were passaged from flasks using cell dissociation reagent and seeded into white walled clear bottom 384-well microplates for compound profiling. For profiling, cells were seeded at a density of 5000 cells per well in a total volume of 20 μL and were allowed to adhere and recover overnight prior to compound addition.
(§5) For the agonist assay, intermediate dilution of compound stocks were generated such that 5 μL of 5× compound could be added to each well with a final DMSO concentration of 1% of total volume. For profiling compound in agonist mode, the cells were incubated in the presence of compound at 37° C. for 90 minutes.
For the antagonist assay, agonist dose curves were performed the morning of profiling to determine the EC80 value for the following antagonist testing with compounds. 5 μL of 5× agonist (i.e. chemerin) was added to each well with an equal concentration of vehicle present. EC80 agonist concentration was determined directly from agonist dose curve. For antagonist determination, cells were preincubated with antagonist followed by agonist challenge at the EC80 concentration: 4. 5 μL of 5× compound added to cells and incubated at 37° C. for 30 minutes. 5. […]
(§6) Microplates were read following signal generation with a PerkinElmer Envision™ instrument for chemiluminescent signal detection
(§7) Dose curves in the presence and absence of compound were plotted using GraphPad Prism or Activity Base. For agonist mode assays, percentage activity was calculated using the following formula: % Activity=100%×(Mean RLU of test sample−mean RLU of vehicle control)/(mean MAX RLU control ligand−mean RLU of vehicle control)). For antagonist mode assays, percentage inhibition was calculated using the following formula: % Inhibition=100%×(1−(Mean RLU of test sample−mean RLU of vehicle control)/(mean RLU of EC80 control−mean RLU of vehicle control)).

GPR1 = molecular target: T2, GPR1 (Homo sapiens, UniProt P46091); assay: PathHunter β-Arrestin assay, GPR1, agonist and antagonist mode; assay type: cell-based; conditions: for agonist activity, in words: FIG. 2A/2B
T2 construct: host or cells: CHO
T2 sequence (P46091 1-355): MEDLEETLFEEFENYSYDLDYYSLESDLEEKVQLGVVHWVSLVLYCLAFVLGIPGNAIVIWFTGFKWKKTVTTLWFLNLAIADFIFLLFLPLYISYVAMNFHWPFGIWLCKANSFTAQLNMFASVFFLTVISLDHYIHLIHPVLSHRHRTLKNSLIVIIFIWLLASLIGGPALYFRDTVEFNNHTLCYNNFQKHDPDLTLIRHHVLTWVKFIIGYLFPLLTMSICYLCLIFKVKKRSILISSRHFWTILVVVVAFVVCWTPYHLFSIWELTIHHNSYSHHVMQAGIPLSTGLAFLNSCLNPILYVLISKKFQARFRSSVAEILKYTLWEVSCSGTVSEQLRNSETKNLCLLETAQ
Experimental: as §1, §2, §3, §4, §5
(§8) For the antagonist assay, agonist dose curves were performed the morning of profiling to determine the EC80 value for the following antagonist testing with compounds. 5 μL of 5× agonist (i.e. chemerin) was added to each well with an equal concentration of vehicle present. EC80 agonist concentration was determined directly from agonist dose curve. For antagonist determination, cells were preincubated with antagonist followed by agonist challenge at the EC80 concentration: 4. 5 μL of 5× compound added to cells and incubated at 37° C. for 30 minutes. 5. 5 μL of 6× EC80 agonist added to cells and incubated at 37° C. for 90 minutes.
as §6, §7

[1] = tested on: IFNγ/LPS stimulated human macrophages; assay: Cytokine secretion by IFNγ/LPS stimulated human macrophages (Luminex); assay type: cell-based
Description: In this example, the ability of human chemerin C15 to inhibit secretion of cytokines from activated human macrophages was examined. For this experiment, the activity of the human chemerin C15 peptide […] (SEQ ID NO: 1) was compared to that of the human chemerin C17 peptide […] (SEQ ID NO: 25). The C15 and C17 peptides were synthesized by solid phase synthesis using BOP coupling of FMOC protected amino acids with final cleavage from the resin with TFA. Peptides were purified by reverse phase C18 chromatography using a water/acetonitrile gradient.
Human macrophages were derived from human CD14+ monocytes obtained from 3 donors. On Day 1, the isolated monocytes were thawed and seeded in triplicate for each group in 1 ml RPMI 1640 GlutaMAX™ media (supplemented with 10% FBS, 100 U/ml penicillin, 100 μg/ml streptomycin, 0.05 μM mercaptoethanol, 1% NEAA and 1% sodium pyruvate) per well of a 24 well cell culture dish at a cell concentration of 5×10^5 cells/ml. M-CSF was added to each well to give a final concentration of 25 ng/ml. Cells were grown for 7 days at 37° C. with 5% CO2 to differentiate the cells into macrophages. Media and M-CSF were replaced after 4 days.
Following differentiation, the media containing M-CSF was removed. The cells were washed and vehicle control, dexamethasone, C15 or C17 were added to the appropriate wells. The test peptides were dissolved in 50% DMSO/water prior to addition. C-15 (MW 1669; 16.7 mg/ml) was added to a final concentration of […] and C17 (MW 1904; 19.0 mg/ml) was added to a final concentration of 1 μM. Dexamethasone was added to a final concentration of 1 μM. Following addition to the wells, the plates were incubated at 37° C. with 5% CO2 for 1 hour. An equal volume of complete media was added to the non-treated wells. Control or test treatments were maintained at the correct concentration throughout the assay.
IFNγ (final concentration 20 ng/ml) was then added to the appropriate wells. Following IFNγ addition, the plates were incubated at 37° C. with 5% CO2 for 4 hours. The concentration of vehicle control, test treatments or dexamethasone was maintained during IFNγ stimulation. LPS (final concentration 10 ng/ml) was then added to the appropriate wells. Following LPS addition, the plates were incubated at 37° C. with 5% CO2 for 15 hours. After 6 hours, ˜60 μl of culture supernatant was removed from all wells and stored at −80° C. for analysis. The concentration of vehicle control, test treatments or dexamethasone was maintained during LPS stimulation.
At 15 hours post LPS stimulation, the remaining cell culture supernatant was harvested and stored at −80° C. until assayed. The concentration of vehicle control, test treatments or dexamethasone was maintained until culture termination.
Cell culture supernatants taken at 6 hours and 15 hours post LPS addition were assayed for the production of RANTES, TNFα, IL-1β, IL-6, IL-10, IL-12p40 (subunit common to IL-12 and IL-23) and IL-15 (negative control) using Luminex® technology (Procarta human cytokine kit; Panomics) following the manufacturer's instructions.
In this experiment, the importance of the FYFP motif (SEQ ID NO: 2) in the human chemerin C15 peptide on anti-inflammatory activity was examined. The ability of the human chemerin C15 peptide […] (SEQ ID NO: 1) was compared to that of a substituted chemerin C15 peptide having the amino acid sequence […] (SEQ ID NO: 27), where the second phenylalanine in the peptide is modified to alanine. The experiment was performed as described in Example 1. 0.1 pM 0.5 pM and 1 pM concentrations of the C15 and C15 mutant peptides were tested. Cytokine expression was determined as described in Example 1.

psoriasis patients = conditions: cited from earlier work
ChemR23 = molecular target: T3, ChemR23 (Homo sapiens, UniProt Q99788); assay: Hit Hunter cAMP Hunter assay, human ChemR23; assay type: cell-based
T3 sequence (Q99788 1-373): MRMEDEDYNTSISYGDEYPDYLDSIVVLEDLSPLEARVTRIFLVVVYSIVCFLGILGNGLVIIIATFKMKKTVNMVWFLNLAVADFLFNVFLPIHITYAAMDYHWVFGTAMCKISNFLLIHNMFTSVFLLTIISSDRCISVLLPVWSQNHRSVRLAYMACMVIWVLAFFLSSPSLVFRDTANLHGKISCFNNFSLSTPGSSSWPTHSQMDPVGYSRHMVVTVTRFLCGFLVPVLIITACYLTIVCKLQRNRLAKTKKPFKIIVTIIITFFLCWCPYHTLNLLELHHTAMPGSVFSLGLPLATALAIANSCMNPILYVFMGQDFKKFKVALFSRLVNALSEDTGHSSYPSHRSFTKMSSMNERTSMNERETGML
Experimental: as §1
as §4, with “reagent buffer” for “reagent”, “10000” for “5000”, “addition. Cells were treated the following day using the protocols shown below. cAMP modulation was determined using the DiscoveRx HitHunter cAMP XS+ assay.” for “addition.”
For profiling compound in agonist mode, the cells were incubated in the presence of compound at 37° C. for 30 minutes.
EC80 agonist concentration was determined directly from agonist dose curve.
Microplates were read following signal generation with a PerkinElmer Envision™ instrument for chemiluminescent signal detection.
Dose curves in the presence and absence of compound were plotted using GraphPad Prism or Activity Base.

ChemR23 (CMKLR1) = molecular target: T4, ChemR23 (CMKLR1) (Homo sapiens, UniProt Q99788); assay: PathHunter β-Arrestin assay, ChemR23 (CMKLR1), agonist and antagonist mode; assay type: cell-based
T4 construct: host or cells: CHO
T4 sequence (Q99788 1-373): T3 sequence (Q99788 1-373)
Experimental: as §1, §2, §3, §4, §5, §8, §6, §7

[2] = Example 3, 0.1 pM 0.5 pM and 1 pM tested, FIG. 3

EC50 (mChemR23; Arrestin, Agonist, mChemR23, read-out: RC50 (uM), EC50): 0.00154 µM | agonist activity, in words (GPR1; GPR1): potent agonist activity
Compound: hrChemerin: chemerin protein, control agonist of ChemR23 and GPR1

Compound: C[C@@H]1C[C@H]2[C@@H]3CCC4=CC(=O)C=C[C@]4(C)[C@@]3(F)[C@@H](O)C[C@]2(C)[C@@]1(O)C(=O)CO [Dexamethasone]
inhibition of IL-1β secretion ([1]; 1 μM dosage): approximately 30% | inhibition of RANTES secretion ([1]; 1 μM dosage): ~50% | inhibition at 1 µM ([1]; Homo sapiens, Macrophage, dexamethasone 1 μM, read-out: inhibition of the production of IL-10): ~70%

Compound: Stelara: approved systemic mono-clonal antibody for psoriasis, clears IL-23
time of maximal serum concentrations (psoriasis patients; post-injection): 5 days | improvement in PASI score (psoriasis patients; within two weeks after a single dose): 50%

Compound: C[C@H](N)C(=O)NCC(=O)N[C@@H](CCC(=O)O)C(=O)N[C@@H](CC(=O)O)C(=O)N1CCC[C@H]1C(=O)N[C@@H](Cc1c[nH]cn1)C(=O)N[C@@H](CO)C(=O)N[C@@H](Cc1ccccc1)C(=O)N[C@@H](Cc1ccc(O)cc1)C(=O)N[C@@H](Cc1ccccc1)C(=O)N1CCC[C@H]1C(=O)NCC(=O)N[C@@H](CCC(N)=O)C(=O)N[C@@H](Cc1ccccc1)C(=O)N[C@@H](C)C(=O)N[C@@H](Cc1ccccc1)C(=O)O [C16 (human)] (H-AGEDPHSFYFPGQFAF-OH; N-terminus and C-terminus assumed)
IC50 (ChemR23): > 10 µM | IC50 (mChemR23): > 10 µM | IC50 (ChemR23 (CMKLR1)): > 10 µM | Rank Order (ChemR23 (CMKLR1); ChemR23, agonist): 1 | % Max Activity (ChemR23 (CMKLR1); ChemR23, agonist mode): 98.6% | % Max Inhibition (ChemR23 (CMKLR1); ChemR23, antagonist mode, chemerin at EC80): 0% | agonist activity, in words (ChemR23 (CMKLR1); human ChemR23, FIG. 2A/2B): exhibited agonist activity | IC50 (GPR1): > 10 µM | agonist activity, in words (GPR1; GPR1): exhibited agonist activity | Rank Order (GPR1; GPR1, agonist): 2 | % Max Activity (GPR1; GPR1, agonist mode): 87.9% | % Max Inhibition (GPR1; GPR1, antagonist mode, chemerin at EC80): 0%

Compound: AGEDPHGYFAPGQFA [mutant C15 polypeptide]
percent inhibition of RANTES expression [1, 2]: unable to inhibit expression | percent inhibition of TNFα expression [1, 2]: unable to inhibit expression
